Data taken from patent US4058523A, “Bis(benzamido)-benzene derivatives” (Chugai Seiyaku Kabushiki Kaisha, priority 1974, dated 1977).
Where a name gives a salt, the structure may show the parent alone.

Experiments:
[1] = test system: stress-induced ulcer formation; assay: Inhibitory action on stress-induced ulcer formation; format: in vivo, Sprague-Dawley strain male rats; settings: oral, rats; for Number of Ulcers/Stomach, 3 mm or larger / Number of Ulcers/Stomach, up to 3 mm: 10 minutes before stress; for Ulcer Index (mean value ± standard deviation): Ulcer Index = a + b/10, Control 6.1 ± 2.3; for inhibition in vivo at 100 mg/kg: Rattus norvegicus, 16 h, stress-induced ulcer, read-out: Percent Inhibition
Procedure: Action on stress-induced ulcer formation
Sprague-Dawley strain male rats weighing 200-250 g were deprived of food for 24 hours, and then laid down on their backs on a screen and fixed by fastening their limbs with a strand. The fixed rats were submerged in water bath to the depth of ensiform process with their hind legs dipped first. Sixteen hours after the submergence, the rats were brought out from the bath and their stomachs were taken out. After light fixation with a 1% formalin aqueous solution, the stomach of each animal was cut open along their greater curvature and gastric mucosa was observed through a dissecting microscope. The ulcer was evaluated on an ulcer index calculated from the following equation: […]
wherein a is the number of big ulcers more than 3 mm in diameter and b is the number of small ulcers up to 3 mm in diameter.
A test compound was orally administered as a suspension in a 1% gum arabic aqueous solution, 10 minutes before exposure to stress.

[2] = test system: pylorus ligature ulcer formation; assay: Protective action on pylorus ligature ulcer formation; format: in vivo, Sprague-Dawley strain male rats; settings: in the duodenum, rats; for Percent Death Rate / Percent Perforating Ulcers: 16 hours after pylorus ligature
Procedure: Protective Action on pylorus ligature ulcer formation
The pylorus of Sprague-Dawley strain male rats weighing 150-200 g that had abstained from food, but not water for 48 hours was ligatured under ether anethsia. Each rat was allowed to stand individually in a cage for 16 hours without food and water. At the end of this term, the rats were sacrificed by an overdose of diethyl ether. The stomach was taken out of each animal and the gastric mucosa was observed by the use of a dissecting microscope.
Ulcers observed in the gastric mucosa were evaluated on a scale of from 0 to 5 defined as follows.
0: No lesion was observed.
1: Hemorrhage and/or erosion were observed.
2: One to five small ulcers less than 3 mm in diameter were observed.
3: Six or more small ulcers and/or a large ulcer more than 3 mm in diameter were observed.
4: Two or more large ulcers were observed.
5: At least one perforating ulcer was observed.
A test compound was administered as an aqueous solution in an equivalent molar of hydrochloric acid in the duodenum immediately after the pylorus ligature.

Acute toxicity in mice = settings: mouse, in vivo
Procedure: Acute toxicity of 1-(3'-dimethylaminopropoxy)-2,4-bis(2"-methylbenzamido)-benzene, 1-(3'-dimethylaminopropoxy)-2,4-bis(3"-methylbenzamido)-benzene, 1-[N-(3-dimethylaminopropyl)-carbamoyl]-2,4-bis(2"-methylbenzamido)-benzene and 1-[N-(3'-dimethylaminopropyl)-carbamoyl]-2,4-bis(3"-methylbenzamido)-benzene were observed by the use of ddY strain male mice (5 weeks old) which were administered orally or intravenously with one of the compounds.
In the case of intravenous administration, the hydrochloride of test compound was dissolved in a physiological saline solution and administered by injecting into a vein of the tail. LD50 was determined by the "Up and Down" method.
When the administration was effected orally, the test compound was suspended in a 1% gum arabic aqueous solution and the suspension was administered orally by gavage. LD50 was determined by the Litchfield and Wilcoxon method or Miller and Tainter method based on death rate of each group of […] 10 days after the administration of the compound.

[3] = iv, hydrochloride in physiological saline, Up and Down Method
[4] = oral, 1% gum arabic suspension, 10 days, Litchfield and Wilcoxon Method

SMILES: CCN(CC)CCCOc1ccc(NC(=O)c2ccccc2OC)cc1NC(=O)c1ccccc1OC [1-(3'-diethylaminopropoxy)-2,4-bis(2"-methoxybenzamido)-benzene]
- Number of Ulcers/Stomach, 3 mm or larger ([1]; 100 mg/kg): 0.8
- Number of Ulcers/Stomach, up to 3 mm ([1]; 100 mg/kg): 8
- Ulcer Index (mean value ± standard deviation) ([1]; 100 mg/kg): 1.5 ± 2.4
- inhibition in vivo at 100 mg/kg ([1]; 100 mg/kg): 76%

SMILES: CCN(CC)CCCOc1ccc(NC(=O)c2ccccc2C)cc1NC(=O)c1ccccc1C [1-(3'-diethylaminopropoxy)-2,4-bis(2"-methylbenzamido)-benzene]
- Number of Ulcers/Stomach, 3 mm or larger ([1]; 100 mg/kg): 0
- Number of Ulcers/Stomach, up to 3 mm ([1]; 100 mg/kg): 6
- Ulcer Index (mean value ± standard deviation) ([1]; 100 mg/kg): 0.5 ± 1.0
- inhibition in vivo at 100 mg/kg ([1]; 100 mg/kg): 92%

SMILES: CCN(CC)CCCOc1ccc(NC(=O)c2cccc(C)c2)cc1NC(=O)c1cccc(C)c1 [1-(3'-diethylaminopropoxy)-2,4-bis(3"-methylbenzamido)-benzene]
- Number of Ulcers/Stomach, 3 mm or larger ([1]; 100 mg/kg): 0.3
- Number of Ulcers/Stomach, up to 3 mm ([1]; 100 mg/kg): 6
- Ulcer Index (mean value ± standard deviation) ([1]; 100 mg/kg): 0.8 ± 1.0
- inhibition in vivo at 100 mg/kg ([1]; 100 mg/kg): 87%

SMILES: CCN(CC)CCCOc1ccc(NC(=O)c2ccc(C)cc2)cc1NC(=O)c1ccc(C)cc1 [1-(3'-diethylaminopropoxy)-2,4-bis(4"-methylbenzamido)-benzene]
- Number of Ulcers/Stomach, 3 mm or larger ([1]; 100 mg/kg): 1.3
- Number of Ulcers/Stomach, up to 3 mm ([1]; 100 mg/kg): 17
- Ulcer Index (mean value ± standard deviation) ([1]; 100 mg/kg): 3.0 ± 0.8
- inhibition in vivo at 100 mg/kg ([1]; 100 mg/kg): 52%

SMILES: COc1ccccc1C(=O)Nc1ccc(OCCCN(C)C)c(NC(=O)c2ccccc2OC)c1 [1-(3'-dimethylaminopropoxy)-2,4-bis(2"-methoxybenzamido)-benzene trihydrochloride]
- Number of Ulcers/Stomach, 3 mm or larger ([1]; 100 mg/kg): 0.5
- Number of Ulcers/Stomach, up to 3 mm ([1]; 100 mg/kg): 13
- Ulcer Index (mean value ± standard deviation) ([1]; 100 mg/kg): 1.8 ± 2.4
- inhibition in vivo at 100 mg/kg ([1]; 100 mg/kg): 71%

SMILES: Cc1ccccc1C(=O)Nc1ccc(OCCCN(C)C)c(NC(=O)c2ccccc2C)c1 [1-(3'-dimethylaminopropoxy)-2,4-bis(2"-methylbenzamido)-benzene]
- Percent Death Rate ([2]; 50 mg/kg): 20%
- Percent Perforating Ulcers ([2]; 50 mg/kg): 20%
- Percent Death Rate ([2]; 100 mg/kg): 0%
- Percent Perforating Ulcers ([2]; 100 mg/kg): 0%
- Percent Death Rate ([2]; 200 mg/kg): 0%
- Percent Perforating Ulcers ([2]; 200 mg/kg): 0%
- Number of Ulcers/Stomach, up to 3 mm ([1]; 30 mg/kg): 23
- Number of Ulcers/Stomach, up to 3 mm ([1]; 45 mg/kg): 17
- Number of Ulcers/Stomach, up to 3 mm ([1]; 67 mg/kg): 9
- Number of Ulcers/Stomach, up to 3 mm ([1]; 100 mg/kg): 4
- LD50 (Acute toxicity in mice; [3]): 42 mg/kg
- LD50 (Acute toxicity in mice; [4]): 2520 mg/kg

SMILES: Cc1cccc(C(=O)Nc2ccc(OCCCN(C)C)c(NC(=O)c3cccc(C)c3)c2)c1 [1-(3'-dimethylaminopropoxy)-2,4-bis(3"-methylbenzamido)-benzene]
- Percent Death Rate ([2]; 50 mg/kg): 33%
- Percent Perforating Ulcers ([2]; 50 mg/kg): 50%
- Percent Death Rate ([2]; 100 mg/kg): 0%
- Percent Perforating Ulcers ([2]; 100 mg/kg): 0%
- Percent Death Rate ([2]; 200 mg/kg): 0%
- Percent Perforating Ulcers ([2]; 200 mg/kg): 0%
- Percent Inhibition ([2]; 200 mg/kg, 16 hours, ulcer index vs control): 75%
- Number of Ulcers/Stomach, up to 3 mm ([1]; 30 mg/kg): 21
- Number of Ulcers/Stomach, up to 3 mm ([1]; 45 mg/kg): 9
- Number of Ulcers/Stomach, up to 3 mm ([1]; 67 mg/kg): 7
- Number of Ulcers/Stomach, up to 3 mm ([1]; 100 mg/kg): 11
- LD50 (Acute toxicity in mice; [3]): 38 mg/kg
- LD50 (Acute toxicity in mice; [4]): 4700 mg/kg

SMILES: CCN(CC)CCCCOc1ccc(NC(=O)c2ccccc2OC)cc1NC(=O)c1ccccc1OC [1-(4'-diethylaminobutoxy)-2,4-bis(2"methoxybenzamido)-benzene]
- Number of Ulcers/Stomach, 3 mm or larger ([1]; 100 mg/kg): 0.8
- Number of Ulcers/Stomach, up to 3 mm ([1]; 100 mg/kg): 11
- Ulcer Index (mean value ± standard deviation) ([1]; 100 mg/kg): 1.8 ± 1.5
- inhibition in vivo at 100 mg/kg ([1]; 100 mg/kg): 71%

SMILES: Cc1ccccc1C(=O)Nc1ccc(OCCCCN(C)C)c(NC(=O)c2ccccc2C)c1 [1-(4'-dimethylaminobutoxy)-2,4-bis(2"-methylbenzamido)-benzene]
- Number of Ulcers/Stomach, 3 mm or larger ([1]; 100 mg/kg): 0.2
- Number of Ulcers/Stomach, up to 3 mm ([1]; 100 mg/kg): 6
- Ulcer Index (mean value ± standard deviation) ([1]; 100 mg/kg): 1.0 ± 0.6
- inhibition in vivo at 100 mg/kg ([1]; 100 mg/kg): 85%

SMILES: Cc1cccc(C(=O)Nc2ccc(OCCCCN(C)C)c(NC(=O)c3cccc(C)c3)c2)c1 [1-(4'-dimethylaminobutoxy)-2,4-bis(3"-methylbenzamido)-benzene]
- Number of Ulcers/Stomach, 3 mm or larger ([1]; 100 mg/kg): 0.5
- Number of Ulcers/Stomach, up to 3 mm ([1]; 100 mg/kg): 8
- Ulcer Index (mean value ± standard deviation) ([1]; 100 mg/kg): 1.2 ± 1.6
- inhibition in vivo at 100 mg/kg ([1]; 100 mg/kg): 82%

SMILES: CCN(CC)CCCNC(=O)c1ccc(NC(=O)c2cccc(C)c2)cc1NC(=O)c1cccc(C)c1 [1-[N(3'-diethylaminopropyl)-carbamoyl]-2,4-bis(3"-methylbenzamido)-benzene]
- Number of Ulcers/Stomach, 3 mm or larger ([1]; 100 mg/kg): 0
- Number of Ulcers/Stomach, up to 3 mm ([1]; 100 mg/kg): 12
- Ulcer Index (mean value ± standard deviation) ([1]; 100 mg/kg): 1.0 ± 0.6
- inhibition in vivo at 100 mg/kg ([1]; 100 mg/kg): 85%

SMILES: CCN(CC)CCNC(=O)c1ccc(NC(=O)c2ccccc2OC)cc1NC(=O)c1ccccc1OC [1-[N-(2'-diethylaminoethyl)-carbamoyl]-2,4-bis(2"-methoxybenzamido)-benzene hydrochloride]
- Number of Ulcers/Stomach, 3 mm or larger ([1]; 100 mg/kg): 1.1
- Number of Ulcers/Stomach, up to 3 mm ([1]; 100 mg/kg): 12
- Ulcer Index (mean value ± standard deviation) ([1]; 100 mg/kg): 3.8 ± 2.3
- inhibition in vivo at 100 mg/kg ([1]; 100 mg/kg): 40%

SMILES: CCN(CC)CCNC(=O)c1ccc(NC(=O)c2ccccc2C)cc1NC(=O)c1ccccc1C [1-[N-(2'-diethylaminoethyl)-carbamoyl]-2,4-bis(2"-methylbenzamido)-benzene]
- Number of Ulcers/Stomach, 3 mm or larger ([1]; 100 mg/kg): 1.2
- Number of Ulcers/Stomach, up to 3 mm ([1]; 100 mg/kg): 29
- Ulcer Index (mean value ± standard deviation) ([1]; 100 mg/kg): 4.2 ± 0.4
- inhibition in vivo at 100 mg/kg ([1]; 100 mg/kg): 38%

SMILES: CCN(CC)CCNC(=O)c1ccc(NC(=O)c2cccc(C)c2)cc1NC(=O)c1cccc(C)c1 [1-[N-(2'-diethylaminoethyl)-carbamoyl]-2,4-bis(3"-methylbenzamido)-benzene]
- Number of Ulcers/Stomach, 3 mm or larger ([1]; 100 mg/kg): 1.3
- Number of Ulcers/Stomach, up to 3 mm ([1]; 100 mg/kg): 27
- Ulcer Index (mean value ± standard deviation) ([1]; 100 mg/kg): 4.0 ± 2.6
- inhibition in vivo at 100 mg/kg ([1]; 100 mg/kg): 46%

SMILES: CCN(CC)CCNC(=O)c1ccc(NC(=O)c2ccc(C)cc2)cc1NC(=O)c1ccc(C)cc1 [1-[N-(2'-diethylaminoethyl)-carbamoyl]-2,4-bis(4"-methylbenzamido)-benzene]
- Number of Ulcers/Stomach, 3 mm or larger ([1]; 100 mg/kg): 1.4
- Number of Ulcers/Stomach, up to 3 mm ([1]; 100 mg/kg): 26
- Ulcer Index (mean value ± standard deviation) ([1]; 100 mg/kg): 4.0 ± 1.4
- inhibition in vivo at 100 mg/kg ([1]; 100 mg/kg): 40%

SMILES: CCN(CC)CCNC(=O)c1cc(NC(=O)c2ccccc2OC)cc(NC(=O)c2ccccc2OC)c1 [1-[N-(2'-diethylaminoethyl)-carbamoyl]-3,5-bis(2"-methoxybenzamido)-benzene hydrochloride]
- Number of Ulcers/Stomach, 3 mm or larger ([1]; 100 mg/kg): 3.0
- Number of Ulcers/Stomach, up to 3 mm ([1]; 100 mg/kg): 13
- Ulcer Index (mean value ± standard deviation) ([1]; 100 mg/kg): 4.3 ± 2.2
- inhibition in vivo at 100 mg/kg ([1]; 100 mg/kg): 33%

SMILES: CCN(CC)CCCNC(=O)c1ccc(NC(=O)c2ccccc2OC)cc1NC(=O)c1ccccc1OC [1-[N-(3'-diethylaminopropyl)-carbamoyl]-2,4-bis(2"-methoxybenzamido)-benzene]
- Number of Ulcers/Stomach, 3 mm or larger ([1]; 100 mg/kg): 0
- Number of Ulcers/Stomach, up to 3 mm ([1]; 100 mg/kg): 11
- Ulcer Index (mean value ± standard deviation) ([1]; 100 mg/kg): 1.3 ± 0.5
- inhibition in vivo at 100 mg/kg ([1]; 100 mg/kg): 80%

SMILES: Cc1ccccc1C(=O)Nc1ccc(C(=O)NCCCN(C)C)c(NC(=O)c2ccccc2C)c1 [1-[N-(3'-dimethylaminopropyl)-carbamoyl]-2,4-bis(2"-methylbenzamido)-benzene]
- Percent Death Rate ([2]; 200 mg/kg): 0%
- Percent Perforating Ulcers ([2]; 200 mg/kg): 0%
- Number of Ulcers/Stomach, up to 3 mm ([1]; 100 mg/kg): 23
- LD50 (Acute toxicity in mice; [3]): 111 mg/kg

SMILES: Cc1cccc(C(=O)Nc2ccc(C(=O)NCCCN(C)C)c(NC(=O)c3cccc(C)c3)c2)c1 [1-[N-(3'-dimethylaminopropyl)-carbamoyl]-2,4-bis(3"-methylbenzamido)-benzene]
- Percent Death Rate ([2]; 200 mg/kg): 0%
- Percent Perforating Ulcers ([2]; 200 mg/kg): 0%
- Number of Ulcers/Stomach, up to 3 mm ([1]; 100 mg/kg): 17
- LD50 (Acute toxicity in mice; [3]): 88 mg/kg
- LD50 (Acute toxicity in mice; oral, 1% gum arabic suspension, 10 days, Miller and Tainter Method): 5100 mg/kg

SMILES: Cc1ccc(C(=O)Nc2ccc(C(=O)NCCCN(C)C)c(NC(=O)c3ccc(C)cc3)c2)cc1 [1-[N-(3'-dimethylaminopropyl)-carbamoyl]-2,4-bis(4"-methylbenzamido)-benzene]
- Number of Ulcers/Stomach, 3 mm or larger ([1]; 100 mg/kg): 1.0
- Number of Ulcers/Stomach, up to 3 mm ([1]; 100 mg/kg): 19
- Ulcer Index (mean value ± standard deviation) ([1]; 100 mg/kg): 3.0 ± 1.4
- inhibition in vivo at 100 mg/kg ([1]; 100 mg/kg): 60%
